Experimental data taken from paper PMC6770071, “XIAP as a Target of New Small Organic Natural Molecules Inducing Human Cancer Cell Death” (Cancers, 2019).

Tested on: caspase 7
Test: Cleaved-caspase 7 western blot in MCF10 cells
Format: cell-based, human
Details: MCF10, 6 h; gibbilimbol B/eriopodol A 30 µg/mL, erioquinol 10 µg/mL
Description: Using published protocols, MCF7 and MCF10 cells were homogenised in RIPA lysis buffer, supplemented with a cocktail of protease inhibitors (cOmplete; Roche Diagnostics, Milano, Italy). Equal amounts of proteins were separated by 4–20% SDS-polyacrylamide gel electrophoresis (Criterion TGX Stain-free precast gels and Criterion Cell system; Bio-Rad, Hercules, CA, USA) and transferred onto nitrocellulose membrane using a Bio-Rad Trans-Blot Turbo System. When indicated, the membranes were probed using the rabbit monoclonal anti-cleaved caspase 7 and anti-XIAP (Cell Signaling Technology) primary antibodies. After the incubation with the appropriate horseradish-peroxidase-conjugated secondary antibody (Cell Signaling Technology), bands were visualised using the Clarity Western ECL substrate with a ChemiDoc MP imaging system (Bio-Rad). To monitor for potential artefacts in loading and transfer among samples in different lanes, the blots were routinely treated with the Restore Western Blot Stripping Buffer (ThermoFisher Scientific) and re-probed with the goat anti-Lactate dehydrogenase (LDH)-A (Santa Cruz Biotechnology) and the mouse anti-vinculin primary antibodies. The stain-free gel was used as loading control as well. When appropriated, bands were quantified for densitometry using the Bio-Rad Image Lab software.
Figure S6. Western blot. […]

With `CCCCCC/C=C/CCc1ccc(O)cc1` [Gibbilimbol B, (E)-4-(dec-3′-enyl)phenol] the “activation of caspase 7” value was “activation of caspase 7”.
